Measured values published in patent US8609610B2, “Inhibitors of the trypsin-like site of the proteasome and methods of use thereof” (Trustees of Dartmouth College, priority 2011, dated 2013).

Legend:
[1] = test system: chymotrypsin-like sites (β5) of proteasome in MM cells; assay: PROTEASOMEGLO assay of proteasome inhibition in MM cells; type: cell-based; details: washout
[2] = test system: T1, chymotrypsin-like sites (β5) of proteasome in MM cells; assay: as above; type: cell-based; details: for Inhibition of chymotrypsin-like sites, 6 h −NC-022: washout
T1 construct: other: NCI-H929; bortezomib 100 nM 1 h; bortezomib 11 nM 1 h; bortezomib 3.7 nM 1 h; bortezomib 33 nM 1 h; other: NCI-H9

[3] = molecular target: T2, trypsin-like sites (β2) of proteasome in MM cells (Homo sapiens, UniProt Q99436); assay: as above; type: cell-based; details: for Inhibition of trypsin-like sites, 6 h +NC-022 / Inhibition of trypsin-like sites, 6 h −NC-022: washout
T2 construct: endogenous in cells; host or cells: NCI-H929, RPMI-8226 and other MM cell lines
T2 sequence (Q99436 44-277): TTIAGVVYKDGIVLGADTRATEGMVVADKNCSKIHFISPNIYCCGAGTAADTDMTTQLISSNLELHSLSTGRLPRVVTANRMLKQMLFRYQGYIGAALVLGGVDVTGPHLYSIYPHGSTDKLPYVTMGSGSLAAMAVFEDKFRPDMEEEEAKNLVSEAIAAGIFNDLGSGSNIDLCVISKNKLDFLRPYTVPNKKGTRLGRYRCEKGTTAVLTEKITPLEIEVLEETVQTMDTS

[4] = test system: KMS-12-BM cells; assay: ALAMAR BLUE cell viability assay; type: cell-based; details: viability at 48 h
Outline: (§1)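 Myeloma lines were grown in RPMI-1640 with 10% FBS; viability of myeloma cells was read by ALAMAR BLUE mitochondrial dye conversion. PBMNC viability used CELL TITER-GLO ATP luminescence. Caspase-3/7 activity in NCI-H929 and MM1.R was measured with the APO-ONE homogeneous assay.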

[5] = test system: NCI-H929 cells; assay: ALAMAR BLUE cell viability assay; type: cell-based; details: NCI-H929, viability at 48 h
Outline: as §1

[6] = test system: chymotrypsin-like sites; details: patients treated with carfilzomib; cited from earlier work
[7] = KMS-12-BM, carfilzomib 11 nM 1 h
[8] = KMS-12-BM, carfilzomib 33 nM 1 h
[9] = KMS-12-BM, carfilzomib 100 nM 1 h
[10] = KMS-12-BM, carfilzomib 300 nM 1 h
[11] = KMS-12-BM, carfilzomib 900 nM 1 h
[12] = NCI-H929, carfilzomib 3.7 nM 1 h
[13] = NCI-H929, carfilzomib 11 nM 1 h
[14] = NCI-H929, carfilzomib 33 nM 1 h

CC(C)C[C@H](NC(=O)[C@H](CCc1ccccc1)NC(=O)CN1CCOCC1)C(=O)N[C@@H](Cc1ccccc1)C(=O)N[C@@H](CC(C)C)C(=O)[C@@]1(C)CO1 [Carfilzomib]
Inhibition of chymotrypsin-like sites, 6 h +NC-022 [1, 7]: 63 ± 13 % control | Inhibition of chymotrypsin-like sites, 6 h +NC-022 [1, 8]: 84 ± 6 % control | Inhibition of chymotrypsin-like sites, 6 h +NC-022 [1, 9]: 90 ± 3 % control | Inhibition of chymotrypsin-like sites, 6 h +NC-022 [1, 10]: 95 ± 4 % control | Inhibition of chymotrypsin-like sites, 6 h +NC-022 [1, 11]: 99 ± 4 % control | Inhibition of chymotrypsin-like sites, 6 h +NC-022 [1, 12]: 41 ± 29 % control | Inhibition of chymotrypsin-like sites, 6 h +NC-022 [1, 13]: 52 ± 32 % control | Inhibition of chymotrypsin-like sites, 6 h +NC-022 [1, 14]: 71 ± 23 % control | Inhibition of chymotrypsin-like sites, 1 h [2, 7]: 75 ± 6 % control | Inhibition of chymotrypsin-like sites, 6 h −NC-022 [2, 7]: 67 ± 17 % control | Inhibition of chymotrypsin-like sites, 1 h [2, 8]: 90 ± 3 % control | Inhibition of chymotrypsin-like sites, 6 h −NC-022 [2, 8]: 97 ± 1 % control | Inhibition of chymotrypsin-like sites, 1 h [2, 9]: 95 ± 3 % control | Inhibition of chymotrypsin-like sites, 6 h −NC-022 [2, 9]: 97 ± 1 % control | Inhibition of chymotrypsin-like sites, 1 h [2, 10]: 97 ± 3 % control | Inhibition of chymotrypsin-like sites, 6 h −NC-022 [2, 10]: 97 ± 1 % control | Inhibition of chymotrypsin-like sites, 1 h [2, 11]: 98 ± 3 % control | Inhibition of chymotrypsin-like sites, 6 h −NC-022 [2, 11]: 97 ± 0 % control | Inhibition of chymotrypsin-like sites, 1 h [2, 12]: 14 ± 43 % control | Inhibition of chymotrypsin-like sites, 6 h −NC-022 [2, 12]: 65.5 % control | Inhibition of chymotrypsin-like sites, 1 h [2, 13]: 39 ± 35 % control | Inhibition of chymotrypsin-like sites, 6 h −NC-022 [2, 13]: 89 ± 11 % control | Inhibition of chymotrypsin-like sites, 1 h [2, 14]: 75 ± 17 % control | Inhibition of chymotrypsin-like sites, 6 h −NC-022 [2, 14]: 95 ± 7 % control | Inhibition of trypsin-like sites, 1 h [3, 7]: −3 ± 10 % control | Inhibition of trypsin-like sites, 6 h +NC-022 [3, 7]: 91 ± 2 % control | Inhibition of trypsin-like sites, 6 h −NC-022 [3, 7]: 5 ± 25 % control | Inhibition of trypsin-like sites, 1 h [3, 8]: 0 ± 11 % control | Inhibition of trypsin-like sites, 6 h +NC-022 [3, 8]: 91 ± 2 % control | Inhibition of trypsin-like sites, 6 h −NC-022 [3, 8]: 45 ± 4 % control | Inhibition of trypsin-like sites, 1 h [3, 9]: 18 ± 8 % control | Inhibition of trypsin-like sites, 6 h +NC-022 [3, 9]: 94 ± 2 % control | Inhibition of trypsin-like sites, 6 h −NC-022 [3, 9]: 62 ± 2 % control | Inhibition of trypsin-like sites, 1 h [3, 10]: 49 ± 18 % control | Inhibition of trypsin-like sites, 6 h +NC-022 [3, 10]: 93 ± 2 % control | Inhibition of trypsin-like sites, 6 h −NC-022 [3, 10]: 69 ± 2 % control | Inhibition of trypsin-like sites, 1 h [3, 11]: 75 ± 14 % control | Inhibition of trypsin-like sites, 6 h +NC-022 [3, 11]: 94 ± 3 % control | Inhibition of trypsin-like sites, 6 h −NC-022 [3, 11]: 72 ± 2 % control | Inhibition of trypsin-like sites, 1 h [3, 12]: −7 ± 18 % control | Inhibition of trypsin-like sites, 6 h +NC-022 [3, 12]: 93 ± 3 % control | Inhibition of trypsin-like sites, 6 h −NC-022 [3, 12]: 3 % control | Inhibition of trypsin-like sites, 1 h [3, 13]: 0 ± 14 % control | Inhibition of trypsin-like sites, 6 h +NC-022 [3, 13]: 93 ± 2 % control | Inhibition of trypsin-like sites, 6 h −NC-022 [3, 13]: 39 ± 36 % control | Inhibition of trypsin-like sites, 1 h [3, 14]: 17 ± 8 % control | Inhibition of trypsin-like sites, 6 h +NC-022 [3, 14]: 94 ± 3 % control | Inhibition of trypsin-like sites, 6 h −NC-022 [3, 14]: 46 ± 24 % control | Viability +NC-022 ([4]; carfilzomib 11 nM 1 h): 69 ± 2 % control | Viability −NC-022 ([4]; carfilzomib 11 nM 1 h): 95 ± 3 % control | Viability +NC-022 ([4]; carfilzomib 33 nM 1 h): 40 ± 3 % control | Viability −NC-022 ([4]; carfilzomib 33 nM 1 h): 91 ± 3 % control | Viability +NC-022 ([4]; carfilzomib 100 nM 1 h): 27 ± 5 % control | Viability −NC-022 ([4]; carfilzomib 100 nM 1 h): 83.5 ± 3 % control | Viability +NC-022 ([4]; carfilzomib 300 nM 1 h): 15 ± 1 % control | Viability −NC-022 ([4]; carfilzomib 300 nM 1 h): 71 ± 2 % control | Viability +NC-022 ([4]; carfilzomib 900 nM 1 h): 9 ± 1 % control | Viability −NC-022 ([4]; carfilzomib 900 nM 1 h): 41 ± 7 % control | Viability +NC-022 ([5]; carfilzomib 3.7 nM 1 h): 36 ± 15 % control | Viability −NC-022 ([5]; carfilzomib 3.7 nM 1 h): 99 ± 9 % control | Viability +NC-022 ([5]; carfilzomib 11 nM 1 h): 14 ± 8 % control | Viability −NC-022 ([5]; carfilzomib 11 nM 1 h): 78 ± 15 % control | Viability +NC-022 ([5]; carfilzomib 33 nM 1 h): 4 ± 2 % control | Viability −NC-022 ([5]; carfilzomib 33 nM 1 h): 30 ± 11 % control | inhibition of the chymotrypsin-like sites in patients [6]: ~90%
